Measurements from patent publication US9733236B2, “Methods for determining the effect of an agent on tissue stem cells” (priority 2014, dated 2017).
“Also recorded” adds a separate entry of the source. Structures can show the parent of a compound that is named as a salt.

Assays:
[1] = clinical effects of the known drug; cited from earlier work
[2] = system: tissue stem cells, transient cells; conditions: cell kinetics type the agent acts on; positive control agents; cited from earlier work
tissue stem cells = conditions: in vitro; known in the art; cited from earlier work
[3] = system: human liver stem cell-enriched cultures; assay: Serial culture of human liver stem cell strains with xanthosine (cumulative population doublings); assay type: cell-based; conditions: FIG. 14A
Excerpt: Using a pre-existing dataset developed with control human mini-tissue cultures and cultures treated with the purine nucleoside xanthosine as the test agent, we have validated the ability to use basic cell culture data, described in the methods herein, to detect effects on liver tissue stem cells. […] We used xanthosine as the agent to expand human liver stem cell strains and to produce human liver mini-tissues. […] Thus, culture systems of cells comprising heterogeneous cell population of stem, transient, and differentiated cells can be used to evaluate the activity of a test agent against tissue stem cells by using the methods described herein.
As an initial test of this ability, we used existing data sets from serial culture of our human liver stem cell strains.^14,15 Because these analyses were not ideally developed for the PSCK computer simulation format, they represented a more challenging validation.
The validation agent used was xanthosine, a purine nucleoside that we have shown independently to induce tissue stem cells to switch from asymmetric self-renewal divisions to symmetric divisions that lead to self-replication.

SMILES | Clinical Effects [1] | Cell-type Specificity [2] | also measured
O=P1(N(CCCl)CCCl)NCCCO1 (stereo not drawn) [cyclophosphamide] | Cytoxan ®; extremely myelosuppressive | SC and TC | 
Cc1ccc(C(=O)Nc2ccc(CN3CCN(C)CC3)c(C(F)(F)F)c2)cc1C#Cc1cnc2cccnn12 [ponatinib] | Inclusig ®; myelosuppressive |  | 
Cn1cncc1[C@@](N)(c1ccc(Cl)cc1)c1ccc2c(c1)c(-c1cccc(Cl)c1)cc(=O)n2C [tipifarnib] | Highly toxic with myelosuppression |  | 
O=c1[nH]c(=O)c2ncn([C@@H]3O[C@H](CO)[C@@H](O)[C@H]3O)c2[nH]1 [xanthosine] |  | SC^a | tissue stem cell self-replication (tissue stem cells): increases self-replication by adult tissue stem cells; also recorded: (In vitro, increases tissue SC self-replication)^1-5; proliferative rate and extent of human liver stem cell serial cultures ([3]; experimental data): increase the proliferative rate and extent; population doublings reached in serial culture ([3]; xanthosine-supplemented culture, control arrests after less than 30 population doublings): greater than 80 population doublings
CC(=O)[C@]1(O)Cc2c(O)c3c(c(O)c2[C@@H](O[C@H]2C[C@H](N)[C@H](O)[C@H](C)O2)C1)C(=O)c1ccccc1C3=O [idarubicin] | Targets hematopoietic progenitors |  | 
CS(=O)(=O)c1ccc(C2=C(c3ccccc3)C(=O)OC2)cc1 [refecoxib] | Vioxx ®; idiosyncratic life-threatening toxicity | SC and TC | 
Cc1ccc(NC(=O)c2ccc(CN3CCN(C)CC3)cc2)cc1Nc1nccc(-c2cccnc2)n1 [imatinib mesylate] |  | TC^b | 
